# From paper PMC5437240, “Computational and structural evidence for neurotransmitter-mediated modulation of the oligomeric states of human insulin in storage granules” (The Journal of Biological Chemistry, 2017)
# Target: T1, porcine hexameric Zn2+-insulin (Sus scrofa, UniProt P01315)
# T1 construct: gene INS; mature two-chain disulfide-linked insulin, cut from (pre)proinsulin; Zn2+ hexamer (two Zn per hexamer), T6 start state
# Test: UV-visible 4H3N chromophore titration, Hill fit
# Assay type: binding
# Settings: read-out: Kd ± S.D.
# Description: UV-visible 4H3N chromophore titration, Hill fit on porcine hexameric Zn2+-insulin
# T1 sequence (P01315 25-54): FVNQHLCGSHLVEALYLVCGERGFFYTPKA
# T1 sequence (P01315 88-108): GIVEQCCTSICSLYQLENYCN
row,SMILES,Kd
1,Oc1ccccc1 [phenol],0.86 ± 0.13 mM
2,NCCc1c[nH]c2ccc(O)cc12 [serotonin],3.34 ± 0.52 mM
